We go through 31 molecules from US9221761B2, “Method for inhibition of deubiquitinating activity” (Vivolux AB, priority 2011, dated 2015).

Test [1] has as its system MelJuSo Ub-YFP reporter cell line. As to the kind of experiment: Proteasome inhibition in reporter cell line, YFP accumulation in IncuCyte-FLR. The format is cell-based. The following applies: YFP accumulation measured for 48 hours; for MeJuSo-UB, IncuCyte lowest effective conc.: Table 1; for MeJuSo-UB, lowest effective conc.: Table 2. From the text:
Cell culture. MCF7 cells are maintained in MEM/10% fetal calf serum. HCT-116 p53+/+, p53−/−, Bcl-2+/+, PUMA−/− and BAX−/− cells are maintained in McCoy's 5A modified medium/10% fetal calf serum. The HCT-116 p53+/+, p53−/−, PUMA−/− and BAX−/− are generated as described (25). The HCT-116 Bcl-2+/+ cell line was generated by transfecting parental HCT-116 p53+/+ cells with pCEP4 Bcl-2 (Addgene plasmid 16461) (26) and isolating high expression clones. FaDu and LLC3 cells are maintained in DMEM high glucose medium supplemented with 10% fetal calf serum, Na pyruvate, Hepes and non-essential amino acids. 4T1.12B carcinoma cells are maintained in RPMI medium supplemented with 10% fetal calf serum. The proteasome reporter cell line MelJuSo Ub-YFP was generated as described (12). Cells were maintained in Dulbecco's Modified Eagle's Medium/10% fetal calf serum. […] The retinal epithelial cell line was generated as described (28). All cells are maintained at 37° C. in 5% CO2.
The compound of the invention induces proteasome inhibition. The reporter cell line MelJuSo Ub-YFP, which is engineered to accumulate yellow fluorescent protein (YFP) upon proteasome inhibition (12), was used for compound evaluation. The accumulation of YFP was measured for 48 hours in an IncuCyte-FLR system (Essen Bioscience, Essen, UK), which is an automated fluorescence microscope. Numbers of positive cells per field were used as a measure of proteasome inhibition.

Test [2] relates to HCT116. As to the kind of experiment: FMCA (Fluorometric Microculture Cytotoxicity Assay) cytotoxicity. The following applies: 72 hours of continuous compound exposure. The test is classed as cell-based. As to the method: FIGS. 1a to 1o are diagrams illustrating induction of dose-dependent cytotoxicity after 72 hours of continuous compound exposure to the reporter cell line HCT-116 by embodiments of the compound of the invention, as measured FMCA (Fluorometric Microculture Cytotoxicity Assay), as well as absence of such induction by structurally related compounds not comprised by the invention. Treated cells were compared to untreated controls (survival index);
Determination of cell apoptosis and viability. For determination of apoptosis parental HCT-116 p53+/+ cells are treated with the increasing doses of the compound of the invention for 24 h. […] HCT-116 cells are seeded in 96-well microtiter plates at 10,000 cells per well and incubated overnight. Cells are treated with indicated drug for 24 h. At the end of the incubation period, NP40 is added to the tissue culture medium to 0.1% and 25 μl of the content of each well was assayed using the M30-Apoptosense® ELISA as previously described (31). Cell viability is determined by measuring acid phosphatase activity or using the FMCA method (32). For the acid phosphatase activity cells are seeded at 5000 cells per well in 96-well culture plates and incubated for 12 h at 37° C. Compounds are added to the cells in growth media and incubated for 72 h at 37° C. Cells are washed with 200 μl warm PBS. 100 μl of para-nitrophenyl phosphate (pNPP, 2 mg/ml) in Na acetate buffer pH 5 (NaAc 0.1 M, 0.1% Triton-X-100) is added per well. Cells are incubated for 2 h after which reaction was stopped by addition of 1N NaOH. Absorbance is measured at 405 nm. The dose-dependent cytotoxicity of a number of embodiments of the compound of the invention is illustrated in FIGS. 1a-1o.
For the FMCA assay cells are seeded in the drug-prepared 384-well plates using the pipetting robot Precision 2000 (Bio-Tek Instruments Inc., Winooski, Vt.). The plates are incubated for 72 h and then transferred to an integrated HTS SAIGAN Core System consisting of an ORCA robot (Beckman Coulter) with CO2 incubator (Cytomat 2C, Kendro, Sollentuna, Sweden), dispenser module (Multidrop 384, Titertek, Huntsville, Ala.), washer module (ELx 405, Bio-Tek Instruments Inc), delidding station, plate hotels, barcode reader (Beckman Coulter), liquid handler (Biomek 2000, Beckman Coulter) and a multipurpose reader (FLUOstar Optima, BMG Labtech GmbH, Offenburg, Germany) for automated FMCA. Survival index (SI) is defined as the fluorescence of test wells in percentage of controls with blank values subtracted.
FIGS. 3b, 3d, 3f are diagrams illustrating the cytotoxicity of compounds of the invention nos. 1546, 1547, and 1570 with a 7-membered ring moiety in comparison to structurally corresponding compounds not comprised by the invention with a 6-membered ring moiety. Their induction of dose-dependent cytotoxicity was determined after 72 hours of continuous compound exposure to the reporter cell line HCT-116. Treated cells were compared with untreated controls. Cytotoxicity is visualized as survival index (SI) over the range of about 90% SI to about 0% SI in dependence on compound concentration.

Broadly, the IC50 is the concentration at which inhibition is half-maximal. The low end stands for inhibition by little substance, the high end for a need for much substance. As for `CN1CCC(=Cc2ccc(C#N)cc2)C(=O)C(=Cc2ccc(C#N)cc2)C1` [Compound 1621], the “MeJuSo-UB, IncuCyte lowest effective conc.” value in test [1] is 2 µM. Further, in test [2] (Table 1), the IC50 is 4.5 µM.
Regarding `C=CC(=O)N1CCC(=Cc2ccc(F)cc2)C(=O)C(=Cc2ccc(F)cc2)C1` [Compound 1569], in test [1], the “MeJuSo-UB, lowest effective conc.” value stood at 4 µM. The molecule further registered an IC50 in test [2] (Table 2) of 2 µM.
Regarding `COc1ccc(C=C2CN(C)CCC(=Cc3ccc(Cl)cc3)C2=O)cc1` [Compound 1590], the “MeJuSo-UB, IncuCyte lowest effective conc.” value in test [1] was determined as 1 µM. Besides, the IC50 in test [2] (Table 1) was determined as 2 µM.
For the molecule `O=C1/C(=C/c2ccc(Cl)cc2)CCNC/C1=C\c1ccc([N+](=O)[O-])cc1` [Compound 1583, (3E,5E)-5-[(4-chlorophenyl)methylidene]-3-[(4-nitrophenyl)methylidene]azepan-4-one], the “MeJuSo-UB, IncuCyte lowest effective conc.” value in test [1] was determined as 2 µM. In test [2] (Homo sapiens, HCT-116, Table 1), this molecule registered an IC50 of 3.3 µM.
For the molecule `COc1ccc(/C=C2\CNCC/C(=C\c3ccc([N+](=O)[O-])cc3)C2=O)cc1` [Compound 1575, (3E,5E)-3-[(4-methoxyphenyl)methylidene]-5-[(4-nitrophenyl)methylidene]azepan-4-one], the “MeJuSo-UB, IncuCyte lowest effective conc.” value in test [1] was 1 µM. In test [2] (Homo sapiens, HCT-116, Table 1), this molecule came in with an IC50 of 2.1 µM.
For the molecule “(3E,5E)-1-acetyl-5-[(4-fluorophenyl)methylidene]-3-[(4-ethoxyphenyl)methylidene]azepan-4-one [Compound 1579]”, in test [1], the “MeJuSo-UB, lowest effective conc.” value came out at 8 µM. The molecule also displayed an IC50 in test [2] (Table 2) of 5.9 µM.
For the molecule `O=C1/C(=C/c2cccc([N+](=O)[O-])c2)CCNC/C1=C\c1ccccc1` [Compound 1560, (3E,5E)-5-[(3-nitrophenyl)methylidene]-3-(phenylmethylidene)azepan-4-one], in test [2] (Homo sapiens, HCT-116, Table 1), half-maximal inhibition (IC50) was put at 1 µM.
Regarding `O=C1/C(=C/c2ccc(Cl)cc2)CCNC/C1=C\c1ccc(Cl)cc1` [Compound 1518, (3E,5E)-3,5-bis[(4-chlorophenyl)methylidene]azepan-4-one], the “MeJuSo-UB, IncuCyte lowest effective conc.” value in test [1] stood at 1.6 µM.
As to `O=C1C(=Cc2ccc([N+](=O)[O-])cc2)CCNCC1=Cc1ccc([N+](=O)[O-])cc1` [Compound 1537], in test [2] (Table 1), the IC50 came out at 4.1 µM.
Turning to `CC(=O)N1CCC(=Cc2ccc(Cl)c(F)c2)C(=O)C(=Cc2ccc(Cl)c(F)c2)C1` [Compound 1630], the “MeJuSo-UB, lowest effective conc.” value in test [1] is 0.5 µM. The molecule also had an IC50 in test [2] (Table 2) of 0.9 µM.
Consider `COc1ccc(C=C2CN(C(C)=O)CCC(=Cc3ccc(F)cc3)C2=O)cc1` [Compound 1578], for which the “MeJuSo-UB, lowest effective conc.” value in test [1] was determined as 8 µM. In addition, in test [2] (Table 2), the IC50 stood at 7 µM.
Regarding `CCOc1cc(CC(=O)N2CCC(=Cc3ccc(Cl)cc3)C(=O)C(=Cc3ccc(Cl)cc3)C2)ccc1O` [Compound 1639], the “MeJuSo-UB, lowest effective conc.” value in test [1] was 1 µM. The same molecule showed an IC50 in test [2] (Table 2) of 1.2 µM.
On to `N#Cc1cc(C=C2CCNCC(=Cc3ccc(F)c(C#N)c3)C2=O)ccc1F` [Compound 1623], for which the “MeJuSo-UB, IncuCyte lowest effective conc.” value in test [1] was found to be 0.5 µM. Further, the IC50 in test [2] (Table 1) is 1 µM.
On to `CN1CC/C(=C\c2ccc([N+](=O)[O-])cc2)C(=O)/C(=C/c2ccc([N+](=O)[O-])cc2)C1` [Compound 1563, (3E,5E)-1-methyl-3,5-bis[(4-nitrophenyl)methylidene]azepan-4-one], for which the “MeJuSo-UB, IncuCyte lowest effective conc.” value in test [1] was 0.5 µM. In addition, the IC50 in test [2] (Homo sapiens, HCT-116, Table 1) was 1.5 µM.
Consider `CN1CCC(=Cc2ccc(C(F)(F)F)c(F)c2)C(=O)C(=Cc2ccc(C(F)(F)F)c(F)c2)C1` [Compound 1624], for which the “MeJuSo-UB, IncuCyte lowest effective conc.” value in test [1] came out at 1 µM. The IC50 in test [2] (Table 1) is 1.8 µM.
For `CC(=O)OCC(=O)N1CC/C(=C\c2ccc(Cl)c(F)c2)C(=O)/C(=C/c2ccc(Cl)c(F)c2)C1` [Compound 1645], in test [1], the “MeJuSo-UB, lowest effective conc.” value worked out at 2 µM. The molecule also gave an IC50 in test [2] (Table 2) of 2.5 µM.
With `CN1CCC(=Cc2ccc(C(F)(F)F)cc2)C(=O)C(=Cc2ccc(C(F)(F)F)cc2)C1` [Compound 1617], the “MeJuSo-UB, IncuCyte lowest effective conc.” value in test [1] came to 1 µM. For the same molecule, the IC50 in test [2] (Table 1) amounted to 1.6 µM.
The corresponding values for `CN1CCC(=Cc2ccc(F)c(F)c2)C(=O)C(=Cc2ccc(F)c(F)c2)C1` [Compound 1610] are 1 µM and 1.7 µM.
On to `CC(=O)N1CCC(=Cc2ccc([N+](=O)[O-])cc2)C(=O)C(=Cc2ccc([N+](=O)[O-])cc2)C1` [Compound 1567], for which the “MeJuSo-UB, lowest effective conc.” value in test [1] amounted to 0.5 µM. The same molecule gave an IC50 in test [2] (Table 2) of 0.6 µM.
Turning to `CC(=O)N1CCC(=Cc2ccc(F)c(F)c2)C(=O)C(=Cc2ccc(F)c(F)c2)C1` [Compound 1628], the “MeJuSo-UB, lowest effective conc.” value in test [1] amounted to 1 µM. In addition, in test [2] (Table 2), 2.3 µM corresponded to half-maximal inhibition (IC50).
On to `CN1CCC(=Cc2ccc(F)cc2)C(=O)C(=Cc2ccc(F)cc2)C1` [Compound 1564], for which the “MeJuSo-UB, IncuCyte lowest effective conc.” value in test [1] was 16 µM. In test [2] (Table 1), this molecule came in with a half-inhibitory concentration (IC50) of 0.9 µM.
With `CN1CCC(=Cc2ccc(Cl)cc2)C(=O)C(=Cc2ccc(F)cc2)C1` [Compound 1589], in test [1], the “MeJuSo-UB, IncuCyte lowest effective conc.” value was determined as 1 µM. The molecule further gave an IC50 in test [2] (Table 1) of 2.5 µM.
Take `O=C1C(=Cc2ccc(Cl)cc2)CCN(C(=O)c2cccs2)CC1=Cc1ccc(Cl)cc1` [Compound 1638]: the “MeJuSo-UB, lowest effective conc.” value in test [1] turned out to be 2 µM. In test [2] (Table 2), this molecule displayed an IC50 of 2 µM.
For the molecule `C=CC(=O)N1CCC(=Cc2ccc(F)cc2)C(=O)C(=Cc2ccc(F)cc2)C1` [Compound 1568], the “MeJuSo-UB, lowest effective conc.” value in test [1] turned out to be 2 µM. In test [2] (Table 2), it took 1.5 µM to reach half-maximal inhibition (IC50).
With `CN1CCC(=Cc2ccc(F)c(C#N)c2)C(=O)C(=Cc2ccc(F)c(C#N)c2)C1` [Compound 1618], the “MeJuSo-UB, IncuCyte lowest effective conc.” value in test [1] was 0.5 µM. Moreover, inhibition in test [2] (Table 1) was half-maximal at 1.5 µM (IC50).
`O=C1C(=Cc2cccc([N+](=O)[O-])c2)CCNCC1=Cc1cccc([N+](=O)[O-])c1` [Compound 1535] gave an IC50 in test [2] (Table 1) of 5.9 µM.
As for `O=C1/C(=C/c2ccccc2)CCNC/C1=C\c1ccccc1` [Compound 1516, (3E,5E)-3,5-Bis(phenylmethylidene)azepan-4-one], the “MeJuSo-UB, IncuCyte lowest effective conc.” value in test [1] turned out to be 1.2 µM.
Take `O=C(O)C(F)(F)F.O=C1/C(=C/c2ccc([N+](=O)[O-])cc2)CCN(C(=O)[C@H]2CCCN2)C/C1=C\c1ccc([N+](=O)[O-])cc1` [Compound 1505]: in test [1], the “MeJuSo-UB, lowest effective conc.” value was determined as 16 µM.
In test [2] (Table 1), `O=C1C(=Cc2ccccc2[N+](=O)[O-])CCNCC1=Cc1ccccc1[N+](=O)[O-]` [Compound 1536] showed an IC50 of 6.9 µM. That is a single-digit micromolar value.
As for `O=C1C(=Cc2ccc(Cl)cc2)CCN(C(=O)C2CCC2)CC1=Cc1ccc(Cl)cc1` [Compound 1527], the “MeJuSo-UB, lowest effective conc.” value in test [1] is 2 µM.
In the case of `O=C(O)C(F)(F)F.O=C1/C(=C/c2ccc([N+](=O)[O-])cc2)CCN(C(=O)[C@H]2CCCN2)C/C1=C\c1ccc([N+](=O)[O-])cc1` [Compound 1505, (2R)-2-{[(3E,5E)-3,5-bis[(4-nitrophenyl)methylidene]-4-oxoazepan-1-carbonyl}pyrrolidinium trifluoroacetate], half-maximal inhibition in test [2] (Table 2) (IC50) was put at 5.2 µM. That is a single-digit micromolar value.
